The results in this text go back to patent US20240226228A1, “ANTIMICROBIAL PEPTOID HAVING IMPROVED SELECTIVITY AND ANTIMICROBIAL COMPOSITION COMPRISING SAME” (priority 2021, published 2024).

Where a SMILES comes first, the peptide text is derived from it. [ ]: non-standard residue; d: D form. Gly(N(CH2)2(3-indolyl)) = O=C(O)CNCCc1c[nH]c2ccccc12; Nspe = C[C@H](NCC(=O)O)c1ccccc1; Nphe = O=C(O)CNCc1ccccc1; Nlys = NCCCCNCC(=O)O

This data set relates to red blood cells. Nature of the data set: Hemolysis assay. Format: cell-based, Sprague-Dawley mouse. Here is the method: To confirm cytotoxicity by the hemolytic activity of each peptoid synthesized in Example 1, hemolysis analysis was performed. The used blood was collected from a 13-week-old male Sprague-Dawley […] in a tube containing 158 UPS sodium heparin for preventing coagulation, and centrifuged at 4° C. for 10 minutes at 1,000 rpm. Afterward, the plasma was carefully removed, red blood cells were washed with phosphate-buffered saline (PBS: a mixed solution of 35 mM phosphate-buffered solution/150 mM NaCl, pH 7.4) three times and centrifuged at 1,000 rpm for 10 minutes. A 10% (v/v) red blood cell solution diluted in PBS was dispensed at 150 μL into a 96-well plate (microtiter plate), a peptoid solution was added at 50 μL, and 1% Triton X-100 was added. Afterward, the red blood cells were incubated at 37° C. for 1 hour, and the incubated 96-well plate was centrifuged at 1,000 rpm for 15 minutes. A supernatant was obtained and transferred to a new 96-well plate at 150 μL, and absorbance was measured using a spectrophotometer at 540 nm. Percent hemolysis may be calculated by the following Equation 1, and the corresponding results are shown in Tables 11 to 13. % Hemolysis=(A−C)/(B−C)×100 [Equation 1] In Equation 1, A is the absorbance of the peptoid solution at 540 nm, B is the absorbance of the 0.1% Triton X-100 at 540 nm, and C is the absorbance of the PBS solution at 540 nm.
Regarding `C[C@@H](c1ccccc1)N(CC(N)=O)C(=O)CN(C(=O)CN(CCCCN)C(=O)CN(C(=O)CN(C(=O)CN(CCCCN)C(=O)CN(C(=O)CN(C(=O)CN(CCCCN)C(=O)CN(C(=O)CN(C(=O)CN(CCCCN)C(=O)CN(Cc1ccccc1)C(=O)CNCc1ccccc1)[C@@H](C)c1ccccc1)[C@@H](C)c1ccccc1)[C@@H](C)c1ccccc1)[C@@H](C)c1ccccc1)[C@@H](C)c1ccccc1)[C@@H](C)c1ccccc1)[C@@H](C)c1ccccc1` [Peptoid 43], the HC10 was under 3.1 µM, the HC50 (usually the concentration that lyses half of the red blood cells) was determined as 6.4 µM and the “Hmax (100 μM)” value is on record as 105.6 ± 3.8%.
For the molecule `C[C@@H](c1ccccc1)N(CC(N)=O)C(=O)CN(C(=O)CN(CCCCN)C(=O)CN(C(=O)CN(C(=O)CN(CCCCN)C(=O)CN(C(=O)CN(C(=O)CN(CCCCN)C(=O)CN(C(=O)CN(C(=O)CN(CCCCN)C(=O)CN(CCc1c[nH]c2ccccc12)C(=O)CNCCc1c[nH]c2ccccc12)[C@@H](C)c1ccccc1)[C@@H](C)c1ccccc1)[C@@H](C)c1ccccc1)[C@@H](C)c1ccccc1)[C@@H](C)c1ccccc1)[C@@H](C)c1ccccc1)[C@@H](C)c1ccccc1` [Peptoid 6], the HC10 was found to be 9.6 µM, the HC50 turned out to be 22.0 µM and the “Hmax (100 μM)” value is on record as 101.6 ± 5.8%.
In the same order, the values of `C[C@@H](c1ccccc1)N(CC(=O)N(CCCCN)CC(=O)N(CC(=O)N(CC(=O)N(CCCCN)CC(=O)N(CC(=O)N(CC(=O)N(CCCCN)CC(=O)N(CC(=O)N(CC(=O)N(CCc1c[nH]c2ccccc12)CC(N)=O)[C@@H](C)c1ccccc1)[C@@H](C)c1ccccc1)[C@@H](C)c1ccccc1)[C@@H](C)c1ccccc1)[C@@H](C)c1ccccc1)[C@@H](C)c1ccccc1)C(=O)CN(C(=O)CN(CCCCN)C(=O)CNCCc1c[nH]c2ccccc12)[C@@H](C)c1ccccc1` [Peptoid 5] (H-[Gly(N(CH2)2(3-indolyl))][Nlys][Nspe][Nspe][Nlys][Nspe][Nspe][Nlys][Nspe][Nspe][Nlys][Nspe][Nspe][Gly(N(CH2)2(3-indolyl))]-NH2) are under 6.3 µM, 15.3 µM and 108.1 ± 2.7%.
For `C[C@@H](c1ccccc1)N(CC(=O)N(CCCCN)CC(=O)N(CC(=O)N(CC(=O)N(CCCCN)CC(=O)N(CC(=O)N(CC(=O)N(CCCCN)CC(=O)N(CC(=O)N(CC(=O)N(CCc1c[nH]c2ccccc12)CC(N)=O)[C@@H](C)c1ccccc1)[C@@H](C)c1ccccc1)[C@@H](C)c1ccccc1)[C@@H](C)c1ccccc1)[C@@H](C)c1ccccc1)[C@@H](C)c1ccccc1)C(=O)CN(C(=O)CNCCCCN)[C@@H](C)c1ccccc1` [Peptoid 4] (H-[Nlys][Nspe][Nspe][Nlys][Nspe][Nspe][Nlys][Nspe][Nspe][Nlys][Nspe][Nspe][Gly(N(CH2)2(3-indolyl))]-NH2), in that order: under 6.3 µM, 6.7 µM and 103.2 ± 0.9%.
For `C[C@@H](c1ccccc1)N(CC(N)=O)C(=O)CN(CCCCN)C(=O)CN(C(=O)CN(C(=O)CN(CCCCN)C(=O)CN(C(=O)CN(CCCCN)C(=O)CN(CCCCN)C(=O)CN(C(=O)CN(C(=O)CN(CCCCN)C(=O)CN(C(=O)CNCCc1c[nH]c2ccccc12)[C@@H](C)c1ccccc1)[C@@H](C)c1ccccc1)[C@@H](C)c1ccccc1)[C@@H](C)c1ccccc1)[C@@H](C)c1ccccc1)[C@@H](C)c1ccccc1` [Peptoid 62], in that order: 36.2 µM, over 100 µM and 44.8 ± 8.1%.
`C[C@@H](c1ccccc1)N(CC(N)=O)C(=O)CN(C(=O)CN(CCCCN)C(=O)CN(C(=O)CN(C(=O)CN(CCCCN)C(=O)CN(C(=O)CN(C(=O)CN(CCCCN)C(=O)CN(C(=O)CN(C(=O)CN(CCCCN)C(=O)CNCCc1c[nH]c2ccccc12)[C@@H](C)c1ccccc1)[C@@H](C)c1ccccc1)[C@@H](C)c1ccccc1)[C@@H](C)c1ccccc1)[C@@H](C)c1ccccc1)[C@@H](C)c1ccccc1)[C@@H](C)c1ccccc1` [Peptoid 3]: the HC10 was found to be 6.3 µM, the HC50 turned out to be 13.9 µM and the “Hmax (100 μM)” value is reported as 100.5 ± 9.9%.
In the same order, the values of `C[C@@H](c1ccccc1)N(CC(=O)N(CCCCN)CC(=O)N(CC(=O)N(CC(=O)N(CCCCN)CC(=O)N(CC(=O)N(CC(=O)N(CCCCN)CC(=O)N(CC(=O)N(CC(=O)N(CC(N)=O)Cc1ccccc1)[C@@H](C)c1ccccc1)[C@@H](C)c1ccccc1)[C@@H](C)c1ccccc1)[C@@H](C)c1ccccc1)[C@@H](C)c1ccccc1)[C@@H](C)c1ccccc1)C(=O)CN(C(=O)CN(CCCCN)C(=O)CNCc1ccccc1)[C@@H](C)c1ccccc1` [Peptoid 42] (H-[Nphe][Nlys][Nspe][Nspe][Nlys][Nspe][Nspe][Nlys][Nspe][Nspe][Nlys][Nspe][Nspe][Nphe]-NH2) are under 3.1 µM, 6.6 µM and 105.9 ± 1.1%.
In the same order, the values of `C[C@@H](c1ccccc1)N(CC(N)=O)C(=O)CN(CCCCN)C(=O)CN(C(=O)CN(CCCCN)C(=O)CN(CCCCN)C(=O)CN(C(=O)CN(C(=O)CN(CCCCN)C(=O)CN(C(=O)CN(C(=O)CN(CCCCN)C(=O)CN(C(=O)CNCCc1c[nH]c2ccccc12)[C@@H](C)c1ccccc1)[C@@H](C)c1ccccc1)[C@@H](C)c1ccccc1)[C@@H](C)c1ccccc1)[C@@H](C)c1ccccc1)[C@@H](C)c1ccccc1` [Peptoid 63] are 85.0 µM, over 100 µM and 12.7 ± 0.9%.
In the same order, the values of `C[C@@H](c1ccccc1)N(CC(N)=O)C(=O)CN(C(=O)CN(CCCCN)C(=O)CN(C(=O)CN(CCCCN)C(=O)CN(CCCCN)C(=O)CN(C(=O)CN(C(=O)CN(CCCCN)C(=O)CN(C(=O)CN(C(=O)CN(CCCCN)C(=O)CN(CCc1c[nH]c2ccccc12)C(=O)CNCCc1c[nH]c2ccccc12)[C@@H](C)c1ccccc1)[C@@H](C)c1ccccc1)[C@@H](C)c1ccccc1)[C@@H](C)c1ccccc1)[C@@H](C)c1ccccc1)[C@@H](C)c1ccccc1` [Peptoid 35] are 20.4 µM, 63.0 µM and 82.6 ± 3.2%.
Regarding `C[C@@H](c1ccccc1)N(CC(N)=O)C(=O)CN(CCCCN)C(=O)CN(C(=O)CN(C(=O)CN(CCCCN)C(=O)CN(C(=O)CN(C(=O)CN(CCCCN)C(=O)CN(C(=O)CN(CCCCN)C(=O)CN(CCCCN)C(=O)CN(C(=O)CNCCc1c[nH]c2ccccc12)[C@@H](C)c1ccccc1)[C@@H](C)c1ccccc1)[C@@H](C)c1ccccc1)[C@@H](C)c1ccccc1)[C@@H](C)c1ccccc1)[C@@H](C)c1ccccc1` [Peptoid 61], the HC10 is 19.3 µM, the HC50 was 65.4 µM and the “Hmax (100 μM)” value came to 79.9 ± 0.7%.
For `C[C@@H](c1ccccc1)N(CC(=O)N(CCCCN)CC(=O)N(CC(=O)N(CC(=O)N(CCCCN)CC(=O)N(CC(=O)N(CC(=O)N(CCCCN)CC(=O)N(CC(=O)N(CC(=O)N(CCCCN)CC(=O)N(CCCCN)CC(N)=O)[C@@H](C)c1ccccc1)[C@@H](C)c1ccccc1)[C@@H](C)c1ccccc1)[C@@H](C)c1ccccc1)[C@@H](C)c1ccccc1)[C@@H](C)c1ccccc1)C(=O)CNCCc1c[nH]c2ccccc12` [Peptoid 64] (H-[Gly(N(CH2)2(3-indolyl))][Nspe][Nlys][Nspe][Nspe][Nlys][Nspe][Nspe][Nlys][Nspe][Nspe][Nlys][Nlys]-NH2), in that order: 70.7 µM, over 100 µM and 18.9 ± 2.9%.
